PubChem BioAssay (NCI)
Values joined by “and” are separate entries in the source; they are usually repeats but may differ in a detail not shown here. Identical values can stand only once.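 Dose response: 5 concentrations. Exposure: 48 h. Format: 96-well plates. Endpoint: linear interpolation; highest concentration if not reached. GI50: concentration for 50% inhibition of growth. TGI marks complete inhibition of growth.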

Assays:
Assay in all cases: NCI-60 cell line screen, 48 h
786-0 renal = system: 786-0 renal
HCT-116 colon = system: HCT-116 colon
K-562 leukemia = system: K-562 leukemia
RPMI-8226 leukemia = system: RPMI-8226 leukemia
RXF 393 renal = system: RXF 393 renal
SNB-19 CNS = system: SNB-19 CNS
SNB-75 CNS = system: SNB-75 CNS
CAKI-1 renal = system: CAKI-1 renal
DU-145 prostate = system: DU-145 prostate
MCF7 breast = system: MCF7 breast

| SMILES | TGI (786-0 renal) | TGI (HCT-116 colon) | TGI (K-562 leukemia) | TGI (RPMI-8226 leukemia) | TGI (RXF 393 renal) | TGI (SNB-19 CNS) | TGI (SNB-75 CNS) | TGI (CAKI-1 renal) | TGI (DU-145 prostate) | TGI (MCF7 breast) | GI50 (786-0 renal) | GI50 (CAKI-1 renal) | GI50 (DU-145 prostate) | GI50 (HCT-116 colon) | GI50 (K-562 leukemia) | GI50 (MCF7 breast) | GI50 (RXF 393 renal) | GI50 (SNB-19 CNS) | GI50 (RPMI-8226 leukemia) | GI50 (SNB-75 CNS) |
| --- | --- | --- | --- | --- | --- | --- | --- | --- | --- | --- | --- | --- | --- | --- | --- | --- | --- | --- | --- | --- |
| O=C(NC12CC3CCC1CC(C3)C2)[C@@H]1CCCN1C(=O)OCc1ccccc1 (some centres not stated) | > 100 µM | > 100 µM | > 100 µM | > 100 µM | 54.6 µM | > 100 µM | 97.2 µM | – | – | – | – | – | – | – | – | – | – | – | – | – |
| COc1cc2oc(-c3ccc(O)cc3)cc(=O)c2c(O)c1C1OC(CO)C(O)C(O)C1O (configuration not stated) | > 100 µM | > 100 µM | > 100 µM | > 100 µM | – | > 100 µM | > 100 µM | > 100 µM | – | – | – | – | – | – | – | – | – | – | – | – |
| COC(=O)/C=C(/C(=O)OC)C1(C)c2cc(C(=O)OC)c(C(=O)OC)c(N)c2C(=N)N1c1ccccc1 (configuration not stated) | 74.4 µM | 29.3 µM | 51.7 µM | 57.6 µM | 36.1 µM | > 100 µM | 81 µM | 56.1 µM | – | – | – | – | – | – | – | – | – | – | – | – |
| C[C@]12Cc3cn[nH]c3C(=O)C1CC[C@@H]1C2CC[C@@]2(C)C1CC[C@@H]2O (some centres not stated) | > 100 µM | > 100 µM | > 100 µM | > 100 µM | > 100 µM | > 100 µM | > 100 µM | > 100 µM | – | – | – | – | – | – | – | – | – | – | – | – |
| c1ccc2c(c1)SCCCS2 | > 100 µM | > 100 µM | > 100 µM | – | – | > 100 µM | > 100 µM | – | > 100 µM | > 100 µM | – | – | – | – | – | – | – | – | – | – |
| COc1cc(CNc2nc3cc(N)cc(N)c3nc2-c2ccccc2)cc(OC)c1 | 44.2 µM | 11.3 µM | 9.23 µM | 6.22 µM | 58.5 µM | > 100 µM | – | > 100 µM | > 100 µM | > 100 µM | 12.7 µM | 16 µM | 29.7 µM | 3.08 µM | 3.6 µM | 8.34 µM | 6.09 µM | 23.4 µM | – | – |
| N#C/C(=C\c1cc(OCc2ccccc2)c(OCc2ccccc2)cn1)C(N)=O | > 100 µM | > 100 µM | > 100 µM | > 100 µM | > 100 µM | > 100 µM | > 100 µM | > 100 µM | – | – | – | – | – | – | – | – | – | – | – | – |
| O=[N+]([O-])c1ccccc1C1SCc2nc3ccccc3n21 (configuration not stated) | > 100 µM | – | > 100 µM | – | > 100 µM | > 100 µM | – | > 100 µM | – | – | – | – | – | – | – | – | – | – | – | – |
| O=C(NCCNCCO)c1ccc2c(c1)oc1cc3ccccc3c(=O)n12 | > 50 µM | > 50 µM | > 50 µM | > 50 µM | > 50 µM | > 50 µM | 44.4 µM | – | > 50 µM | > 50 µM | > 50 µM | – | 41.2 µM | 22.8 µM | 46.7 µM | 31.1 µM | 14.2 µM | > 50 µM | 33.8 µM | 15 µM |
| COC(=O)C1C(C(=O)OC)C2C(=O)C3C(C(=O)OC)C(C(=O)OC)C3C(=O)C12 (configuration not stated) | > 100 µM | > 100 µM | > 100 µM | – | > 100 µM | > 100 µM | – | > 100 µM | – | – | – | – | – | – | – | – | – | – | – | – |
| COc1ccc(OC)c(NCC(=O)n2nc(/C=C\c3ccc(O)c(OC)c3)cc2/C=C\c2ccc(O)c(OC)c2)c1 | 7.97 µM | – | > 100 µM | 3.54 µM | 3.19 µM | 10.3 µM | 9.75 µM | – | 12.7 µM | 10.4 µM | 2.1 µM | – | 3.23 µM | – | 0.729 µM | 1.61 µM | 1.51 µM | 2.62 µM | 0.702 µM | 2.2 µM |
| COC(=O)OC1C(O[C@H]2C[C@H]3[C@@H]4CC=C5C[C@@H](O)CC[C@]5(C)[C@H]4CC[C@]3(C)[C@H]2[C@H](C)C(=O)CCC(C)C)OCC(O)C1OC1OCC(O)C(O)C1OC(=O)c1ccc(OC)cc1 (some centres not stated) | 0.503 µM | > 27.5 µM | – | 0.00491 µM | 0.00948 µM | 2.24 µM | 3.77 µM | 0.447 µM | 5.18 µM | 0.545 µM | < 0.00275 µM | 0.0191 µM | 0.0127 µM | 0.00886 µM | – | 0.0108 µM | < 0.00275 µM | 0.0155 µM | < 0.00275 µM | < 0.00275 µM |
| CC1(C)OC[C@@H]([C@@]2(CO[Si](c3ccccc3)(c3ccccc3)C(C)(C)C)CC=CC(=O)O2)O1 | 32.8 µM | > 100 µM | > 100 µM | 71.9 µM | > 100 µM | 97.5 µM | – | > 100 µM | > 100 µM | > 100 µM | 8.96 µM | 25.9 µM | 12.7 µM | 4.86 µM | 3.91 µM | 4.83 µM | 9.82 µM | 15.5 µM | 3.55 µM | – |
| COc1cc(Nc2cnc3ccc(C(F)(F)F)cc3n2)cc(OC)c1OC | > 100 µM | > 100 µM | – | > 100 µM | > 100 µM | > 100 µM | – | – | – | – | – | – | – | – | – | – | – | – | – | – |
| CC1=NN(C(=O)Cc2ccccc2)C(=O)/C1=C\c1ccc(O)cc1 | > 100 µM | > 100 µM | > 100 µM | > 100 µM | > 100 µM | > 100 µM | – | > 100 µM | – | – | – | – | – | – | – | – | – | – | – | – |
| COC(=O)CCC(NC(=S)N/N=C/c1cccs1)C(=O)OC (configuration not stated) | > 100 µM | > 100 µM | > 100 µM | – | > 100 µM | > 100 µM | > 100 µM | – | – | – | – | – | – | – | – | – | – | – | – | – |
| N#Cc1nc2c(S(=O)(=O)c3ccc(Cl)cc3)c(N)n(Nc3cccc(Cl)c3)c2nc1C#N | – | – | – | 0.019 µM and 0.0668 µM | – | – | 0.059 µM | – | > 100 µM | – | 0.0389 µM | 0.0311 µM | – | 0.015 µM | 0.0309 µM | 0.015 µM | – | 0.137 µM | 0.00251 µM | 0.0115 µM |
| O=C1[C@@H]2C(c3c(Cl)cccc3Cl)=NO[C@@H]2C(=O)N1c1ccc(Cc2ccc(N3C(=O)[C@H]4C(c5c(Cl)cccc5Cl)=NO[C@H]4C3=O)cc2)cc1 | > 100 µM | – | > 100 µM | > 100 µM | > 100 µM | – | > 100 µM | > 100 µM | – | – | – | – | – | – | – | – | – | – | – | – |
| COc1ccc(CNc2cnc3ccc(N)cc3n2)cc1 | > 100 µM | 11.7 µM | > 100 µM | > 100 µM | – | > 100 µM | > 100 µM | > 100 µM | – | – | – | – | – | – | – | – | – | – | – | – |
| Cc1cc([N+](=O)[O-])c(C)c2c1[nH]c1ccc(Cl)cc12 | > 100 µM | > 100 µM | > 100 µM | > 100 µM | – | > 100 µM | > 100 µM | > 100 µM | – | – | – | – | – | – | – | – | – | – | – | – |
